Where a name gives a salt, the structure may show the parent alone.
How the values were obtained:
[1] = system: Patients with an International Prognostic System Score (IPSS) Low to Intermediate-1 Risk Myelodysplastic syndrome; test: Clinical study of ezatiostat hydrochloride tablets in IPSS low to intermediate-1 risk MDS patients: hematologic improvement (efficacy); format: in vivo, human; settings: for Duration of HI-E Response, # Censored / Duration of HI-E Response, # Event: number of responders; for significant RBC transfusion reduction, patients: five of 11 patients; for HI-E Response Rate (95% Confidence Interval): hydrochloride
[2] = Same clinical study: non-hematologic adverse events (safety, all patients treated); format: in vivo, human
Description: Eighty-seven patients were randomized and treated at 23 investigational sites. After initial dose ranging in 14 patients, two dose levels were selected for further study. Subsequently, 37 patients were treated at 3 grams daily for two weeks followed by a one week rest period, and 36 patients were treated at 2 grams daily for three weeks followed by a one week rest period. The data on these 73 patients was pooled for this preliminary analysis.
The safety data is based on all patients treated.

MDS patients = settings: patients administered lenalidomide; reported; cited from earlier work
[3] = 1 g b.i.d. 3 weeks on & 1 week off
[4] = 1.5 g b.i.d. 2 weeks on & 1 week off

CCOC(=O)[C@@H](N)CCC(=O)N[C@@H](CSCc1ccccc1)C(=O)N[C@@H](C(=O)OCC)c1ccccc1 [Telintra, ezatiostat hydrochloride]
Duration of HI-E Response, # Censored, percent of responders [1, 3]: (66.7%) | Duration of HI-E Response, # Event, percent of responders [1, 3]: (33.3%) | Duration of HI-E Response, Median (95% CI) [1, 3]: 46.1 Weeks | Duration of HI-E Response, Min, Max [1, 3]: 2.4-46.1 Weeks | Time to HI-E Response, Median ([1]; 1 g b.i.d. 3 weeks on & 1 week off (N = 31)): 8.4 Weeks | Time to HI-E Response, Mean ([1]; 1 g b.i.d. 3 weeks on & 1 week off (N = 31), 6 responders): 8.9 Weeks | Duration of HI-E Response, # Censored [1, 3]: 4 | Duration of HI-E Response, # Event [1, 3]: 2 | Duration of HI-E Response, # Censored, percent of responders [1, 4]: (28.6%) | Duration of HI-E Response, # Event, percent of responders [1, 4]: (71.4%) | Duration of HI-E Response, Median (95% CI) [1, 4]: 18.4 Weeks | Duration of HI-E Response, Min, Max [1, 4]: 1.9-51.0 Weeks | Time to HI-E Response, Median ([1]; 1.5 g b.i.d. 2 weeks on & 1 week off (N = 29)): 8.1 Weeks | Time to HI-E Response, Mean ([1]; 1.5 g b.i.d. 2 weeks on & 1 week off (N = 29), 7 responders): 8.4 Weeks | Duration of HI-E Response, # Censored [1, 4]: 2 | Duration of HI-E Response, # Event [1, 4]: 5 | bilineage HI rate (HI-E and HI-N) ([1]; 2 of 19 patients, 95% CI 1.3-33.1): 11% | Hematologic Improvement-Neutrophil (HI-N) rate ([1]; 3 of 20 patients, 95% CI 3.2-37.9): 15% | RBC transfusion independence, patients ([1]; 4 of 38 RBC transfusion-dependent patients): 11% | clinically significant RBC transfusion reduction (reduction of 4U/8 weeks, IWG 2006), patients ([1]; 11 of 38 RBC transfusion-dependent patients): 29% | overall Hematologic Improvement-Erythroid (HI-E) rate ([1]; 13 of 60 evaluable patients, pooled 3 g/day and 2 g/day schedules, 95% CI 12.1-34.2): 22% | median hemoglobin level increase ([1]; in responders): 2.0 gram/dL | increase in response rate ([1]; lenalidomide pre-treated vs not pre-treated patients): over 100% | effect of prior Revlimid treatment on HI-E response ([1]; logistic regression analysis): enhance HI-E response | HI-E rate ([1]; no prior Revlimid, no prior DMTI, 6 of 23 patients, 95% CI 10.2%-48.4%): 26% | significant RBC transfusion reduction, patients ([1]; no prior Revlimid, no prior DMTI): 45% | HI-E rate ([1]; no prior Revlimid, prior DMTI, 0 of 17 patients, 95% CI 0%-19.5%): 0% | complete cytogenetic response (number of patients) ([1]; of the four patients with del 5q minus, one had failed prior Revlimid): two | duration of complete remission following discontinuation of therapy ([1]; one patient): more than 12 months | HI-E Response Rate (95% Confidence Interval) ([1]; patients with no prior Revlimid (lenalidomide) treatment, N=27, efficacy evaluable population): about 22% | HI-E Response Rate (95% Confidence Interval) ([1]; patients with prior Revlimid (lenalidomide) treatment, N=13, efficacy evaluable population): about 46% | median duration of HI-E response ([1]; pooled schedules): 46 weeks | range of duration of HI-E response ([1]; pooled schedules): 2-51 weeks | change in odds for a HI-E response ([1]; prior DMTI treatment, logistic regression, p=0.023): five-fold decrease | HI-E rate ([1]; prior Revlimid, no prior DMTI, 6 of 15 patients, 95% CI 16.3%-67.7%): 40% | significant RBC transfusion reduction, patients ([1]; prior Revlimid, no prior DMTI): 45% | transfusion independence, patients ([1]; prior Revlimid, no prior DMTI, three of 11 patients): 27% | cytogenetic complete responses (number of patients) ([1]; whole study): three | diarrhea, Grade 1 adverse event incidence ([2]; all patients treated): 25% | diarrhea, Grade 2 adverse event incidence ([2]; all patients treated): 7% | diarrhea, Grade 3 adverse event incidence ([2]; all patients treated): 3% | nausea, Grade 1 adverse event incidence ([2]; all patients treated): 45% | nausea, Grade 2 adverse event incidence ([2]; all patients treated): 16% | nausea, Grade 3 adverse event incidence ([2]; all patients treated): 1% | vomiting, Grade 1 adverse event incidence ([2]; all patients treated): 30% | vomiting, Grade 2 adverse event incidence ([2]; all patients treated): 12% | vomiting, Grade 3 adverse event incidence ([2]; all patients treated): 2% | incidence of GI AEs with prior DMTI treatment ([2]; patients with prior DMTI treatment): increased incidence of GI AEs

Nc1cccc2c1CN(C1CCC(=O)NC1=O)C2=O (stereo not drawn) [lenalidomide, 3-(4-amino-l-oxoisoindolin-2-yl)piperidine-2,6-dione]
patients exhibiting clinically recognizable response (MDS patients): about 50%

— patent publication US20140329754A1, “COMPOSITIONS AND METHODS FOR TREATING MYELODYSPLASTIC SYNDROME” (Telik, Inc., priority 2010, published 2014)
